Measured values taken from patent US20170183318A1, “AMIDE COMPOUNDS, METHODS FOR PREPARATION, AND USE THEREOF AS AGENTS FOR THE TREATMENT AND PREVENTION OF DISEASES CAUSED BY RNA- AND/OR DNA-CONTAINING VIRUSES, AND CONCOMITANT DISEASES” (OBSCHESTVO S OGRANICHENNOI OTVETSTVENNOSTIYU …, priority 2014, published 2017).

Legend:
[1] = tested on: Staphylococcus aureus; test: Murine model of staphylococcal pneumonia (bacterial growth from lung imprints); format: in vivo, outbred mice; settings: 5 days before and 2 days after S. aureus infection, lung imprints on Columbia agar, control 82.5
Experimental: The efficiency of the compounds was evaluated in outbred mice (females) infected with Staphylococcus aureus (mouse-adapted strain). The administration of the compounds was started 5 days before infection, orally at doses of 15 and 30 mg/kg in a volume of 0.2 mL. On day 5, the mice were infected intranasally under brief ether anesthesia by administration of Staphylococcus aureus at a dose of 10^9 CFU in a volume of 0.05 mL. One hour after infection, the administration of the compounds to the mice was continued at the above-indicated doses for additional 2 days. The reference drug was ampicillin administered intravenously at a single dose of 20 mg/kg. The control was mice infected with Staphylococcus aureus intranasally and treated with PBS. The mice were sacrificed two days after, the breast was dissected, and lung imprints were made in Petri dishes with Columbia agar. After incubation for 24 hours at 30° C., the presence (or absence) of Staphylococcus aureus bacterial growth was fixed in comparison with the control. The intensity of bacterial growth was evaluated in scores and expressed in %.

[2] = tested on: herpes simplex virus belonging to antigenic type 2; test: Murine model of experimental herpetic meningoencephalitis (mortality); format: in vivo, white outbred mice; settings: Mus musculus, po, 336 h
Experimental: In the study, herpes simplex virus belonging to antigenic type 2 was used. White outbred mice weighing 7-8 g were infected i/c (intracerebrally) in a volume of 0.05 ml/mouse comprising a dose of 10LD50. The infectious dose of the virus that caused 100% mortality in mice was 10LD50. Each experimental group comprised 20 mice. Intact animals served as control and were hold in a separate room under the same conditions as the experimental animals. The antiviral activity of the compounds of general formula I was studied by oral administration of the compounds to infected mice once daily at a dose of 30 mg/kg/mouse 24, 48, 72, 96, and 120 hours after infection of the animals with the virus. The mice of the control group were administered placebo (0.2 mL of physiological solution) under the same conditions. The animals were monitored for 14 days after infection by registration the mouse death in the groups.
Each animal was subjected to once-daily observation. The observation included the assessment of general behavior and body condition of animals. The animals were handled according to the International Standards.
The activity of the compounds was evaluated by comparing mortality rates in the groups of animals administered a preparation and placebo.

[3] = Rat model of nasopharyngitis induced by formalin (nasal mucosa changes, cell elements in nasal lavage); format: in vivo; settings: Wistar rats, 18 mg/kg for 3 days; for Mucous membrane of nasal passages: Without changes (number of animals): number of animals out of n = 10, control 0 of 20; for Mucous membrane of nasal passages: Discharge mucus from the nasal passages (number of animals): number of animals out of n = 10, control 20 of 20
Experimental: Nasopharyngitis was induced by intranasal administration of formalin to each nasal passage of rats.
The administration of formalin to the nasal passages of rats leads to the dissemination of inflammation to adjacent tissues, resulting in a clinical pattern similar to the symptoms of nasopharyngitis in a human.
After an acclimatization period, the following groups were formed: • intact animals administered intragastrically a physiological solution in an amount of 0.2 ml, without induction of nasopharyngitis; • a control group consisted of animals administered intragastrically a physiological solution in an amount of 0.2 ml for 3 days after induction of nasopharyngitis; and • animals administered the studied compounds at a dose of 18 mg/kg for 3 days after induction of nasopharyngitis.
Clinical observation of each animal was performed every day at least twice daily.
The caused pathology was characterized by hyperplasia, increased number of caliciform cells, pronounced infiltration of mononuclear cells and leucocytes, and mucus hyperproduction by submucosal glands.
After euthanasia, the inflammation pattern in the nasal passages and throat was studied in each group of animals. The nasal passages were washed with 5 mL of physiological solution and the score of cell elements were counted in 1 μL.

[4] = tested on: human adenovirus type 5; test: Model of experimental adenovirus infection (destructive processes in the liver, electron microscopy); format: in vivo; settings: newborn Syrian hamsters, 30 mg/kg orally 12, 36, 60 h after infection, liver 72 h after infection, virus control Intensive damages
Experimental: In the study, human adenovirus type 5 was used. In order to play adenovirus infection were used Newborn Syrian hamsters, in which the virus caused disseminated viral infection with damage to liver, lung and heart, were used to reproduce the viral infection. The animals were studied 48 hours after birth. Each group comprised 5 hamsters. The virus was inoculated subcutaneously in a volume of 0.1 mL, at a dose of 10^5 TCID50. The treatment was carried out orally with the compounds of general formula I at a dose of 30 mg/kg of body weight 12, 36, and 60 hours after infection. The animals of the placebo group were administered phosphate buffered saline. Intact animals served as control and were hold in a separate room under the same conditions as the experimental animals. 72 hours after infection, the animals of each group were euthanized, dissected, and the liver was isolated. The therapeutic effect was evaluated by the action on ultrastructural features of the morphogenesis of adenovirus infection in the liver by electron microscopy.

[5] = tested on: hRV; test: Antiviral activity against rhinovirus in mice (infectious titer in lungs titrated in Hela cells; body and lung weight); format: in vivo; settings: 30 mg/kg orally once daily for 4 days from 12 h after infection; lung suspension titrated in Hela cells
Experimental: In this study, author's strain of hRV was used. The animals were infected with the virus intranasally under brief ether anesthesia in a volume of 0.05 ml/mouse.
To determine the efficiency of the compounds against hRV in the experimental model in vivo, the virus was previously titrated in mice, then the mice were infected, and the studied compounds were administered orally. The infectious titer was assessed on day 4 after infection by titration of a lung suspension in Hela cell culture. The infectious titer of the hRV virus in the lugs of the experimental group was determined in comparison with that in the control group by TCID.
The studied compounds and placebo (physiological solution) were orally administered to the mice once daily for 4 days, starting 12 hours after infection. The compounds were administered at a dose of 30 mg/kg of animal body weight. Intact animals served as a negative control and were kept under the same conditions as the experimental animals in a separate room.
The antiviral activity of the studied compounds was determined on day 4 after infection by a reduction of the virus infectious activity determined in Hela cell culture.

[6] = tested on: human respiratory syncytial virus (strain A2); test: Antiviral activity against RS virus in a murine model of suppressed immune system (lung edema); format: in vivo; settings: Balb/c mice, cyclophosphan-suppressed, RS-virus pneumonia; 30 mg/kg once daily for 5 days; M ± SD, n = 5; scores from possible 4
Experimental: Antiviral activity of the chemical compounds against human respiratory syncytial virus (strain A2, an infectious titer of 5×10^6 TCID50/mL) was assessed in a Balb/c murine model of viral pneumonia. The virus was inoculated to animals intranasally in a volume of 50 μL under brief ether anesthesia. The immune response in animals to RS virus was suppressed by intraperitoneal administration of cyclophosphan at a dose of 100 mg/kg 5 days before infection. The studied compounds were administered according to the treatment regimen once daily at a dose of 30 mg/kg for 5 days, starting 24 hours after infection. The activity of the compounds was determined by a reduction in edema of the lung infected with respiratory syncytial virus, compared to the control, on day 5 after infection.

Row | Structure (SMILES) | Bacterial growth, in % ([1]; 15 mg/kg orally) | Bacterial growth, in % ([1]; 30 mg/kg orally) | mortality at 30 mg/kg [2] [%] | Mucous membrane of nasal passages: Without changes (number of animals) [3] | Mucous membrane of nasal passages: Discharge mucus from the nasal passages (number of animals) [3] | Evaluation of damage (intensity of destructive processes in the liver) [4] | Infectious titer of the virus in lungs lg TCID50 (4 days after infection) [5] [lg TCID50] | Degree of lung edema on day 5 after infection, score [6] [score]
1 | O=C(O)CCCC(=O)NCCC1CCCCN1 (stereo not drawn) [Compound 6] | 45% | 55% | 60 | 4 | 6 | Mild damage | 0.4 ± 0.15 | 0.90 ± 0.22
2 | Cc1csc(CCNC(=O)CCCC(=O)O)n1 [Compound 197] | 45% | 60% | 55 | 6 | 4 | Mild damage | 0.37 ± 0.06 | 1.15 ± 0.23
3 | O=C(O)CCCC(=O)NCCC1CCCN1 (stereo not drawn) [Compound 2] | 50 (sporadic colonies (up to 100)) | 55% | 55 | 3 | 7 | Mild damage | 0.1 ± 0.05 | 1.95 ± 0.32
4 | O=C(O)CCCC(=O)NC(Cc1c[nH]cn1)C(=O)O (stereo not drawn) [Compound 251] | 55% | 20% | 65 | 4 | 6 | Mild damage | 0 ± 0 | 0.90 ± 0.21
5 | CC(Cc1cnc[nH]1)NC(=O)CCCC(=O)O (stereo not drawn) [Compound 115] | 55% | 25 (sporadic colonies (up to 10)) | 65 | 3 | 7 | Mild damage | 0.05 ± 0.05 | 1.60 ± 0.5
6 | O=C(O)CCCC(=O)NCCCc1cccs1 [Compound 34] | 25 (sporadic colonies (up to 10)) | 50 (sporadic colonies (up to 100)) | 70 | 3 | 7 | Mild damage | 0.5 ± 0.20 | 1.75 ± 0.4
7 | CC(C)N(CCc1cnc[nH]1)C(=O)CCCC(=O)O [Compound 141] | 55% | 40% | 50 | 4 | 6 | Mild damage | 0 ± 0 | 0.55 ± 0.21
8 | O=C(O)CCCC(=O)NCCCc1c[nH]cn1 [Compound 118] | 55% | 50 (sporadic colonies (up to 100)) | 70 | 5 | 5 | Mild damage | 0 ± 0 | 1.85 ± 0.45
9 | O=C(O)CCCC(=O)NCCc1nc2ccccc2s1 [Compound 275] | 35% | 40% | 60 | 3 | 7 | Mild damage | 0.45 ± 0.1 | 1.80 ± 0.20
